Molecules are shown by their SMILES.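 Grown in 96-well plates, cells were treated for 48 hours with each compound at five concentrations. Insufficient inhibition: endpoint recorded as highest concentration tested. GI50 is the concentration that inhibits growth by half.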 Calls of active or inactive are those of the source. Cut-off read from the data, not from the text of the source: active = GI50 up to about 1.1 µM and inactive = higher.

This is an account of results in ChEMBL document CHEMBL1201862, “PubChem BioAssay data set” (2004).

Common to all, as to assay: NCI anticancer screen, dose series, 48 h
In test [1] the test system is A549.
For test [2], the system named is HCT-15.
Test [3] relates to HOP-92.
The subject of test [4] is IGROV-1.
Test [5] deals with LOX IMVI.
Test [6] deals with MCF7.
Test [7] concerns NCI-H226.
Test [8] deals with NCI-H460.
Test [9] relates to NCI/ADR-RES.
The test system of test [10] is RPMI-8226.
For test [11], the system named is SF-268.
Test [12] deals with SF-295.
In test [13] the test system is SK-MEL-5.
For test [14], the system named is SN12C.
Test [15] concerns SW-620.
Test [16] deals with U-251.
Test [17] has as its system UO-31.
The subject of test [18] is DU-145.
The subject of test [19] is PC-3.
Test [20] concerns T47D.

Regarding `O=C(O)/C=C/C(=O)N1C/C(=C\c2ccccc2)C(=O)/C(=C/c2ccccc2)C1`, the GI50 is 21.4 µM (inactive) in test [1]; 6.73 µM in test [2]; 19.9 µM (inactive) in test [3]; 16.7 µM (inactive) in test [4]; 3.13 µM (inactive) in test [5]; 4.73 µM (inactive) in test [6]. Also, the GI50 is 12.4 µM (inactive) in [7]; 14.1 µM (inactive) in test [8]; 8.65 µM (inactive) in test [9]; 1.78 µM (inactive) in test [10]; 6.35 µM (inactive) in test [11]; 5.01 µM (inactive) in test [12]. Further, the GI50 in test [13] was 8.95 µM (inactive); in test [14] it was 6.81 µM (inactive); in test [15], 2.32 µM (inactive); in test [16], 1.87 µM (inactive); in test [17], 18.2 µM (inactive).

For `CCOc1nc(-c2ccccc2)cc(-c2ccc(N3CCOCC3)cc2)c1C#N`, the GI50 was > 100 µM (inactive) in test [1]; > 100 µM (inactive) in [18]; over 100 µM in [2]; > 100 µM (inactive) in [3]; > 100 µM (inactive) in test [4]; > 100 µM (inactive) in [5]. For the same compound, the GI50 in [6] was > 100 µM (inactive); in test [7] it was > 100 µM (inactive); in test [8] it was > 100 µM (inactive); in test [9], > 100 µM (inactive); in [19], > 100 µM (inactive); in test [10], 77.4 µM (inactive). In addition, the GI50 in [11] is > 100 µM (inactive); in test [12] it was 7.35 µM (inactive); in test [13] it was 42.5 µM (inactive); in test [14], > 100 µM (inactive); in test [15], > 100 µM (inactive); in [16], > 100 µM (inactive). In addition, in test [17], the GI50 is > 100 µM (inactive).

In the case of `C/C(=N\Nc1nc2cc(Cl)ccc2s1)c1ccccn1`, the GI50 was 0.755 µM (active) in [1]; 0.111 µM in test [2]; 0.473 µM (active) in test [3]; 0.127 µM (active) in test [4]; 0.459 µM (active) in test [5]; 0.0867 µM (active) in [6]. In addition, the GI50 in [7] is 0.32 µM (active); in test [8], 0.673 µM (active); in [9], 0.343 µM (active); in [19], 1.35 µM (inactive); in test [10] it was 0.264 µM (active); in test [11], 0.365 µM (active). Moreover, the GI50 in test [12] was 0.914 µM (active); in test [13], 0.428 µM (active); in test [14], 0.372 µM (active); in test [15], 0.817 µM (active); in test [20], 0.402 µM (active); in test [16], 0.877 µM (active). Further, the GI50 in [17] is 0.0685 µM (active).

`COc1cc(CNc2cnc3ccc(N)cc3n2)cc(OC)c1OC`: the GI50 in [1] was > 100 µM (inactive); in test [2], over 100 µM; in [3] it was > 100 µM (inactive); in test [4], > 100 µM (inactive); in test [5], > 100 µM (inactive); in [7], > 100 µM (inactive). Moreover, the GI50 in [8] is > 100 µM (inactive); in test [10], 91.4 µM (inactive); in test [11], > 100 µM (inactive); in [12], > 100 µM (inactive); in test [13], 71.3 µM (inactive); in test [14], > 100 µM (inactive). Moreover, the GI50 in test [15] is 45.1 µM (inactive); in test [16], > 100 µM (inactive); in test [17] it was > 100 µM (inactive).

Regarding `COC(=O)c1c(C)cccc1/C=C1\Cc2cc(C)cc(C)c2C1=O`, the GI50 in [1] is 76.4 µM (inactive); in test [18] it was > 100 µM (inactive); in test [2], over 100 µM; in [3] it was 17.9 µM (inactive); in [4], 65.8 µM (inactive); in test [5], > 100 µM (inactive). Also, the GI50 in [6] was 25.8 µM (inactive); in test [7] it was 56.5 µM (inactive); in test [8] it was 98.4 µM (inactive); in test [19], > 100 µM (inactive); in test [10], > 100 µM (inactive); in test [11], 30.8 µM (inactive). Besides, the GI50 in [12] is 21.7 µM (inactive); in test [13], 32.3 µM (inactive); in test [14], > 100 µM (inactive); in test [15], > 100 µM (inactive); in test [20] it was 31.7 µM (inactive); in [16], 15.3 µM (inactive). In addition, the GI50 in test [17] is > 100 µM (inactive).

As for `COc1ccc(Cn2nc(OCc3ccccc3)c3cc([N+](=O)[O-])ccc32)cc1`, the GI50 in test [1] is > 100 µM (inactive); in test [18], > 100 µM (inactive); in [2] it was over 100 µM; in test [4], > 100 µM (inactive); in [5], > 100 µM (inactive); in test [6] it was > 100 µM (inactive). Moreover, the GI50 in test [7], in test [8], in [9], in test [10], in test [11] and in test [12] was > 100 µM (inactive) in each case. Also, the GI50 in test [13], in test [14], in test [15] and in test [20] was > 100 µM (inactive) in each case.

Consider `CC(C)c1c(O)c(O)c2c(c1O)C(=O)C(O)=C1C(C)(C)CCC[C@@]12C`, for which the GI50 in test [1] is 3.6 µM (inactive); in test [18] it was 4.13 µM (inactive); in test [2] it was 3.66 µM; in [3] it was 1.89 µM (inactive); in test [4], 3.73 µM (inactive); in [5] it was 4.32 µM (inactive). The GI50 in [6] is 3.13 µM (inactive); in test [7], 3.01 µM (inactive); in [8], 3.19 µM (inactive); in test [19] it was 2.64 µM (inactive); in test [10], 1.26 µM (inactive); in test [11], 4.76 µM (inactive). In addition, the GI50 in [12] was 2.96 µM (inactive); in test [13], 2.6 µM (inactive); in test [14], 3.23 µM (inactive); in test [15], 3.29 µM (inactive); in test [20], 3.24 µM (inactive); in [16], 2.77 µM (inactive). Also, the GI50 in test [17] is 2.32 µM (inactive).

Take `ClC1=NSSC1(Cl)Cl`: the GI50 in test [1] was > 100 µM (inactive); in test [18] it was > 100 µM (inactive); in test [2], 18.4 µM; in [3] it was > 10 µM (inactive); in test [4], 61 µM (inactive); in [5], 40.8 µM (inactive). The GI50 is 32.3 µM (inactive) in test [6]; > 100 µM (inactive) in test [7]; 36.9 µM (inactive) in [8]; 34.8 µM (inactive) in test [9]; 61.7 µM (inactive) in test [19]; 23.5 µM (inactive) in test [10]. The GI50 was 61.5 µM (inactive) in [12]; 14.1 µM (inactive) in test [13]; 22.1 µM (inactive) in test [14]; 20.7 µM (inactive) in [15]; 56.6 µM (inactive) in test [16]; 26.7 µM (inactive) in test [17].

For the compound `COC(=O)/C(=N\NC(N)=S)C(C#N)c1ccccc1` (stereo not given), the GI50 was > 100 µM (inactive) in test [1]; over 100 µM in test [2]; > 100 µM (inactive) in [3]; > 100 µM (inactive) in test [4]; > 100 µM (inactive) in test [5]; > 100 µM (inactive) in [7]. Besides, the GI50 in [8], in [10], in test [11], in test [12], in [13] and in test [14] was > 100 µM (inactive) each time. Further, the GI50 in test [15], in test [16] and in test [17] was > 100 µM (inactive) each time.

With `O=C(/C=C/c1c(O)ccc2ccccc12)c1ccccc1Cl`, the GI50 was 32.5 µM (inactive) in test [1]; 36.4 µM in test [2]; 23.2 µM (inactive) in test [3]; 55.5 µM (inactive) in test [4]; 24.2 µM (inactive) in test [5]; > 100 µM (inactive) in [7]. The GI50 in test [8] is 30.6 µM (inactive); in [10], 27.7 µM (inactive); in test [11], 29.3 µM (inactive); in test [12] it was 23.2 µM (inactive); in test [13] it was 18.2 µM (inactive); in test [14] it was 26.7 µM (inactive). Besides, the figures for the GI50 in [15], in test [16] and in [17] were 24.2 µM (inactive), 37.8 µM (inactive) and 49.1 µM (inactive), respectively.

Take `Cc1csc(NC23CC4CC(CC(C4)C2)C3)[n+]1C(P(=O)([O-])O)P(=O)(O)O` (stereo not given): the GI50 was > 100 µM (inactive) in test [1]; > 100 µM (inactive) in test [18]; over 100 µM in test [2]; > 100 µM (inactive) in [3]; > 100 µM (inactive) in [4]; > 100 µM (inactive) in test [5]. Also, the GI50 in [6], in test [7], in [8], in [9], in test [19] and in test [10] was > 100 µM (inactive) in each case. Besides, the GI50 in [11], in test [12], in test [13], in [15], in [16] and in [17] was > 100 µM (inactive) each time.

Take `O=C1C=CC2(CCCCCCC2=O)CC1` (stereo not given): the GI50 in [1] is > 100 µM (inactive); in test [2], over 100 µM; in test [3], > 100 µM (inactive); in test [4], > 100 µM (inactive); in test [5], 44.9 µM (inactive); in test [7], 42.6 µM (inactive). The GI50 in [8], in test [10], in test [11], in test [12], in test [13] and in [14] was > 100 µM (inactive) throughout. Moreover, the GI50 in [15], in [16] and in test [17] was > 100 µM (inactive) each time.
